Each structure is given as a SMILES string. pIC50: −log10 of the molar value. Read-outs that look alike come from different tables or passages of the source. A value given as a limit tells only on which side of the number the result lay.

For test [1], the system named is Cullin-3 (CUL3) neddylation. In words: AlphaLISA assay for Cullin-3 (CUL3) neddylation in TF 1 cells. Format: cell-based. The conditions noted are these: Homo sapiens, TF-1, 3 h, 3 hours treatment. The procedure:
An AiphaLISA assay was performed to evaluate the ability of the compounds to suppress neddylation, which is downstream from DCN-1 and DCN-2. A stronger inhibition of DCN-1 and DCN-2 is expected to result in a suppression of neddylation as shown by a lower AlphaLISA signal. The AlphaLISA assay for detecting Cullin-3 (CUL3) neddylation was performed according to manufacturer instructions (Revvity, Hopkinton, MA). Briefly, TF 1 cells (ATCC) were plated in Iscove's Modified Dulbecco's Medium (IMIDM) without supplements in 384-well plates. These cells were treated with […] for 3 hours before lysing them with AlphaLISA lysis buffer, 5× (Revvity). To detect the level of CUL3 neddylation, biotinylated anti-NEDD8 antibody, was added followed by AlphaLISA Acceptor beads conjugated with anti-CUL3 antibody. After overnight incubation, Streptavidin-coated Alpha Donor beads were added and incubated for 1 hour. The AlphaLISA signal was then read on a VICTOR Nivo Multimode Microplate Reader (Revvity, Hopkinton, MA). The positive control was 1 μM DI-1548, which is reported to reduce CUL3 neddylation, also referred to as C-1 in Example 41 (Zhou et al. Nature Comm. 2021). The neddylation signal was normalized such that the percent inhibition is 0% for vehicle control and 100% for positive control. The dose-response curves were fitted with the Hill equation to obtain IC50 values (Graphpad Prism).
A general note: Bead proximity is the source of the signal in Alpha formats.

Test [2] deals with DCN1 (DCUND1) protein PONY domain (Homo sapiens (Human), UniProt Q96GG9). In words: TR-FRET assay, DCN1 binding with FAM-labeled probe. The conditions noted are these: for IC50: TR FRET IC50 1 hr (nM). Put shortly: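 TR-FRET ratio (Tb-DCN1 to FAM-probe) read at 1, 5 and 24 hrs after compound addition. Protein: recombinant PONY domain from E. coli, biotinylated and coupled to streptavidin terbium. Either 5 nM DCN1 with 20 nM FAM-probe, or 0.31 nM DCN1 with 100 nM FAM-labelled plus 800 nM unlabelled probe.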
Chain of DCN1 (DCUND1) protein PONY domain (Q96GG9 60-248): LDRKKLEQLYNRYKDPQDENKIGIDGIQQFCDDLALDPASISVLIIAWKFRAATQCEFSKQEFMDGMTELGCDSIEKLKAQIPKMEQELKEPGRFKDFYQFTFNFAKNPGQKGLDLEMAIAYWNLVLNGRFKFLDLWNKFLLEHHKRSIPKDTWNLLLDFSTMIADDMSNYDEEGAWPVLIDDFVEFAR
In general terms: TR-FRET usually uses a lanthanide donor and a delayed reading to cut background.

Setting [3] is: 24 hr after treatment with compound, read-out: TR FRET IC50 24 hr.
The mark [4] stands for this setting: 1 hr after treatment with compound.
Where [5] appears, read: read-out: TR FRET IC50 1 hr, 1 hr after treatment with compound.

With `CCN1C(=O)[C@@H](NC(=O)c2cccc(C(F)(F)F)c2)[C@@H](c2ccc(F)cn2)c2c(C(=O)N3CCC[C@H]3C#N)nn(-c3ccccc3)c21` (mixture of isomers) [Compound I-409], the pIC50 in test [1] is 6.00 to 7.00; in test [2] (setting [3]), at least 6.70. Besides, the IC50 in test [2] (setting [4]) is 1000 to 3000 nM.
In the same order, the values of `CCN1C(=O)[C@@H](NC(=O)c2cccc(C(F)(F)F)c2)[C@@H](c2ccccn2)c2c(C(=O)N3CCC[C@H]3C#N)nn(-c3ccccc3)c21` (mixture of isomers) [Compound I-413] are at least 7.00, at least 6.70 and 1000 to 3000 nM.
With `CCN1C(=O)[C@H](NC(=O)c2cccc(C(F)(F)F)c2)[C@H](C2CC2)c2c(C(=O)N(C)C(C)C#N)nn(C3CCOCC3)c21` (mixture of isomers) [Compound I-415], the pIC50 in test [1] was under 6.00; in test [2] (setting [3]), 5.52 to 6.00. The IC50 in test [2] (setting [4]) is 1000 to 3000 nM.
On to `CCN1C(=O)[C@@H](NC(=O)c2cccc(C(F)(F)F)c2)[C@@H](c2ccc(F)cc2)c2c(C(=O)N3C[C@H](NC)C[C@H]3C#N)nn(C3CCOCC3)c21` (mixture of isomers) [Compound I-509, N-((4S,5S)-3-((2S,4R)-2-cyano-4-(methylamino)pyrrolidine-1-carbonyl)-7-ethyl-4-(4-fluorophenyl)-6-oxo-1-(tetrahydro-2H-pyran-4-yl)-4,5,6,7-tetrahydro-1H-pyrazolo[3,4-b]pyridin-5-yl)-3-(trifluoromethyl)benzamide], for which the pIC50 is at least 7.00 in test [1], at least 6.70 in test [2] (setting [3]) and at least 6.70 in test [2] (setting [5]).
`CCN1C(=O)[C@@H](NC(=O)c2cccc(C(F)(F)F)c2)[C@@H](C2CC2)c2c(C(=O)N3[C@H](C#N)C[C@H]4C[C@H]43)nn(C(C)(C)C)c21` (mixture of isomers) [Compound I-517]: the pIC50 was 6.00 to 7.00 in test [1] and 6.00 to 6.70 in test [2] (setting [3]). Further, the IC50 in test [2] (setting [4]) was 1000 to 3000 nM.
On to `CCN1C(=O)[C@@H](NC(=O)c2cccc(C(F)(F)F)c2)[C@@H](C2CC2)c2c(C(=O)N(C)C(C)C#N)nn(-c3ccccc3)c21` (mixture of isomers) [Compound I-543], for which the pIC50 in test [1] was 6.00 to 7.00; in test [2] (setting [3]) it was at least 6.70; in test [2] (setting [5]), at least 6.70.
Regarding `CCN1C(=O)[C@@H](NC(=O)c2cccc(C(F)(F)F)c2)[C@@H](c2ccc(F)cc2)c2c([C@@H](CCO)NC#N)nn(-c3ccccc3)c21` (mixture of isomers) [Compound I-567, N-(rac-(4S,5S)-3-((R)-1-cyanamido-3-hydroxypropyl)-7-ethyl-4-(4-fluorophenyl)-6-oxo-1-phenyl-4,5,6,7-tetrahydro-1H-pyrazolo[3,4-b]pyridin-5-yl)-3-(trifluoromethyl)benzamide], the results for the pIC50 in test [1] and in test [2] (setting [3]) were under 6.00 and 5.52 to 6.00, respectively. The IC50 in test [2] (setting [4]) was in the range of 1000 to 3000 nM.
Regarding `CCN1C(=O)[C@@H](NC(=O)c2cccc(C(F)(F)F)c2)[C@@H](c2ccc(F)nc2)c2c(C(=O)N3CCC[C@H]3C#N)nn(C3CC3)c21` (mixture of isomers) [Compound I-585], the pIC50 in test [1] was 6.00 to 7.00; in test [2] (setting [3]), at least 6.70. Further, in test [2] (setting [4]), the IC50 is 1000 to 3000 nM.
In the same order, the values of `CCN1C(=O)[C@@H](NC(=O)c2cccc(C(F)(F)F)c2)[C@@H](c2ccc(F)cc2)c2c([C@@H](CN(C)C)NC(N)=O)nn(-c3ccccc3)c21` (mixture of isomers) [Compound I-673] are under 6.00, 6.00 to 6.70 and 200 to 1000 nM.
Regarding `CCN1C(=O)[C@@H](NC(=O)c2cccc(C(F)(F)F)c2)[C@@H](c2ccc(F)cc2)c2c(C(F)CNC#N)nn(-c3ccccc3)c21` (mixture of isomers) [Compound I-679], the figures for the pIC50 in test [1] and in test [2] (setting [3]) were at least 7.00 and at least 6.70, respectively. The IC50 in test [2] (setting [4]) is 200 to 1000 nM.
As to `CCN1C(=O)[C@@H](NC(=O)c2cccc(C(F)(F)F)c2)[C@@H](c2ccccn2)c2c([C@@H](C)NC#N)nn(-c3ccccc3)c21` (mixture of isomers) [Compound I-680], the negative logarithm of the IC50 (pIC50) in test [1] is at least 7.00; in test [2] (setting [3]) it was at least 6.70. Besides, the IC50 in test [2] (setting [4]) lay in the range of 200 to 1000 nM.
In the case of `CCN1C(=O)[C@@H](NC(=O)c2cccc(C(F)(F)F)c2)[C@@H](c2ccc(F)cc2)c2c(C(=O)N3CC[C@H](NC)[C@H]3C#N)nn(C3CCOCC3)c21` (mixture of isomers) [Compound I-693, N-((4S,5S)-3-(trans-(2S,3S)-2-cyano-3-(methylamino)pyrrolidine-1-carbonyl)-7-ethyl-4-(4-fluorophenyl)-6-oxo-1-(tetrahydro-2H-pyran-4-yl)-4,5,6,7-tetrahydro-1H-pyrazolo[3,4-b]pyridin-5-yl)-3-(trifluoromethyl)benzamide], the pIC50 in test [1] is at least 7.00; in test [2] (setting [3]), at least 6.70; in test [2] (setting [5]) it was at least 6.70.
With `CCN1C(=O)[C@H](NC(=O)c2cccc(C(F)(F)F)c2)[C@@H](c2ccc(F)cc2)c2c(C3(N(C)C#N)CC3)nn(-c3ccccc3)c21` (racemic) [Compound I-76], the pIC50 is under 6.00 in test [1] and 5.52 to 6.00 in test [2] (setting [3]). For the same molecule, the IC50 in test [2] (setting [4]) lay in the range of 1000 to 3000 nM.
For `CCN1C(=O)[C@H](NC(=O)c2cccc(C(F)(F)F)c2)[C@@H](c2ccc(F)cc2)c2c(C3(NC#N)CC3)nn(-c3ccccc3)c21` (racemic) [Compound I-84] the same measures were under 6.00, 5.52 to 6.00 and 1000 to 3000 nM.
For `CCN1C(=O)[C@@H](NC(=O)c2cccc(C(F)(F)F)c2)[C@@H](c2ccc(F)cc2)c2c(C(=O)N(C)[C@H](C#N)CCN(C)C)nn(-c3ccccc3)c21` (single isomer, unassigned) [Compound I-303, (4S,5S)—N-[(1S*)-1-cyano-3-(dimethylamino)propyl]-7-ethyl-4-(4-fluorophenyl)-N-methyl-6-oxo-1-phenyl-5-[3-(trifluoromethyl)benzamido]-4H,5H-pyrazolo[3,4-b]pyridine-3-carboxamide], in test [1], the pIC50 was at least 7.00.
For the molecule `CCN1C(=O)[C@@H](NC(=O)C2CC(C)C2)[C@@H](C2CC2)c2c(C(=O)N3[C@H](C#N)C[C@H]4C[C@H]43)nn(C3CCOCC3)c21` (stereo partly shown) [Compound I-655], the pIC50 in test [2] (setting [3]) is 5.52 to 6.00. The IC50 in test [2] (setting [4]) lay in the range of 1000 to 3000 nM.
For `CCN1C(=O)[C@@H](NC(=O)CC2CCCc3ccccc32)[C@@H](C2CC2)c2c(C(=O)N3[C@H](C#N)C[C@H]4C[C@H]43)nn(C3CCOCC3)c21` (stereo partly shown) [Compound I-663] the same measures were 5.52 to 6.00 and 1000 to 3000 nM.
In the same order, the values of `CCN1C(=O)[C@@H](NC(=O)c2ccn(C(C)(C)C)n2)[C@@H](C2CC2)c2c(C(=O)N3[C@H](C#N)C[C@H]4C[C@H]43)nn(C3CCOCC3)c21` [Compound I-688] are at least 6.70 and 200 to 1000 nM.
Regarding `CCN1C(=O)[C@@H](NC(=O)c2cccc(F)c2)[C@@H](C2CC2)c2c(C(=O)N3[C@H](C#N)C[C@H]4C[C@H]43)nn(C3CCOCC3)c21` [Compound I-690], the pIC50 in test [2] (setting [3]) is at least 6.70. In addition, the IC50 in test [2] (setting [4]) fell in the range of 200 to 1000 nM.
In the same order, the values of `CCN1C(=O)[C@@H](NC(=O)c2cc(C)n(C(C)(C)C)n2)[C@@H](C2CC2)c2c(C(=O)N3[C@H](C#N)C[C@H]4C[C@H]43)nn(C3CCOCC3)c21` [Compound I-691] are at least 6.70 and 1000 to 3000 nM.
For `CCN1C(=O)[C@@H](NC(=O)c2ccc3c(c2)OCCO3)[C@@H](C2CC2)c2c(C(=O)N3[C@H](C#N)C[C@H]4C[C@H]43)nn(C3CCOCC3)c21` [Compound I-695] the same measures were 5.52 to 6.00 and 1000 to 3000 nM.
For `CCC(=O)N[C@@H]1C(=O)N(CC)c2c(c(C(=O)N3[C@H](C#N)C[C@H]4C[C@H]43)nn2C2CCOCC2)[C@@H]1C1CC1` [Compound I-696] the same measures were 5.52 to 6.00 and 1000 to 3000 nM.
In the case of `CCN1C(=O)[C@@H](NC(=O)c2cccc(C#N)c2)[C@@H](C2CC2)c2c(C(=O)N3[C@H](C#N)C[C@H]4C[C@H]43)nn(C3CCOCC3)c21` [Compound I-698], the pIC50 in test [2] (setting [3]) is 6.00 to 6.70. Moreover, the IC50 in test [2] (setting [4]) fell in the range of 200 to 1000 nM.
In the same order, the values of `CCN1C(=O)[C@@H](NC(=O)C23CC(C(F)(F)F)(C2)C3)[C@@H](C2CC2)c2c(C(=O)N3[C@H](C#N)C[C@H]4C[C@H]43)nn(C3CCOCC3)c21` [Compound I-701] are 5.52 to 6.00 and 1000 to 3000 nM.

Usually pIC50 stands for the negative decadic logarithm of the IC50, by convention in mol/L. In general, IC50 refers to the midpoint of a concentration-inhibition curve.

Source of the values: US20250163057A1, “DCN-1 MODULATING COMPOUNDS AND METHODS OF USE THEREOF” (Cellarity, Inc., priority 2023, published 2025).
